# Measurements: a melting point compilation (Tetko et al.; mined from patent text by program, amines drawn as free bases though some values may be those of a salt)
row,Structure (SMILES),melting point
1,CCCCCCCCc1ccc(NC2=NCCS2)cc1,82 to 84 °C
2,COc1cc2[nH]c(=O)c3c(c2cc1OC)CCN(CCN(C)C)C3,160 to 164 °C
3,CC(=O)c1cc2c(c(CCl)c1O)CCCC2,88 to 90 °C
4,Nc1ccc(-c2ccc(-c3ccc(N)cc3)o2)cc1,213 to 216 °C
5,CC(C)(C)c1cc(Br)c(O)c(C=O)c1Cl,103 to 105 °C
6,CC(=O)CC(=O)N1C(=N)CCN=C(c2ccccc2)c2cc(Cl)ccc21,149 to 150 °C
7,CCOC(=O)Cc1csc(NC(=O)C(Cc2ccccc2)NC(=O)OC(C)(C)C)n1 (stereo unspecified),119 to 120 °C
8,Cc1oc(-c2ccccc2)nc1CNS(=O)(=O)c1ccc(CC2SC(=O)NC2=O)cc1 (stereo unspecified),120 to 122 °C
9,Cn1nnc2c(N3CCOCC3)nc(-c3ccc(NC(=O)Nc4cccnc4)cc3)nc21,272 °C
10,Cc1nc(N)sc1-c1ccnc(Nc2cccc(S(=O)(=O)N3CCOCC3)c2)n1,215 to 216 °C
11,COc1cccc(C(=O)C(=NN)c2cccc(OC)c2)c1,109 to 110 °C
12,O=C(Nc1noc2ccccc12)N1CCN(c2nc(N3CCCCC3)ns2)CC1,214 to 215 °C
13,O=C(CCN1CCC(N2Cc3ccccc3C2=O)CC1)c1ccccc1,87 to 90 °C
14,COc1ccc2cc(C3CCN(C[C@H](O)COc4cccc5oc(C6=NC(C)(C)CO6)cc45)CC3)ccc2c1,133 to 134 °C
15,O=c1c2cc(F)c(N3CCCC3)nc2n(-c2cccc(C(F)(F)F)c2)c(=O)n1OCc1ccccc1,> 250 °C
16,Cc1oc(-c2ccccc2)nc1CCOc1ccc(C[C@H](NC(=O)C=Cc2ccc(F)cc2)C(=O)O)cc1,188 to 190 °C
17,COc1cc(C(F)(F)F)cc(OC)c1-c1ccc(C[C@H](NC(=O)c2c(Cl)cccc2Cl)C(=O)O)cc1,231 to 232 °C
18,CCOC(=O)/C=C1\CCOc2ccc([N+](=O)[O-])cc21,135 °C
19,CCCN1CCCC(NC(=O)C(Cc2ccc(OCc3ccccc3)cc2)NC(=O)C(CC(C)C)N(C)Cc2ccc(N(C)C)cc2)C1 (stereo unspecified),131 to 133 °C
20,COc1ccc(C(=O)NCCCN2CCN(C(c3ccccc3)c3ccccc3)CC2)cc1,126 to 128 °C
21,"CC(=O)Nc1ccc2c(c1)CC1CC(=O)NN=C21 (single isomer, unassigned; (-))",307 °C
22,N#Cc1ccc(CNC(=O)c2cccc(C#CCn3ccnn3)c2)cc1,145 to 147 °C
23,COC(=O)c1ccc(C(F)(F)F)nc1S(=O)(=O)NC(=O)Nc1nc(OC)cc(OC)n1,130 to 137 °C
24,CC(CCCc1ccccc1)c1cc(O)c2c(c1)N1C(=O)CCC1CC2=O (stereo unspecified),127 to 130 °C

row,Structure (SMILES),melting point
1,COc1cc(Nc2c(C#N)cnc3cc(/C=C/C(=O)O)sc23)c(Cl)cc1Cl,> 250 °C
2,C#CCCCCCCCCOc1cccc(C(N)=O)c1,111 to 112 °C
3,O=C(c1ccccc1)c1cnn2c(-c3cccc(NC(=O)C4CC4)c3)ccnc12,210 to 212 °C
4,CC1=CC(O)C(O)C(C)(C)CC1OC(=O)c1ccccc1 (stereo unspecified),94 to 96 °C
5,CCCSC(=S)N1Cc2[nH]c3ccccc3c2CC1CO (stereo unspecified),130 to 131 °C
6,CCN1C(=O)Cc2cc(OCc3ccccc3C(=O)O)ccc21,180 to 181 °C
7,COc1ccc([C@@H]2Sc3cc(Cl)ccc3N(CCCN3CCN(c4ccccc4)CC3)C(=O)[C@@H]2O)cc1 (relative stereo),70 to 71 °C
8,CCCCCCCCCCCCCCCCCCOC(=O)C1CCC2OC2C1 (stereo unspecified),32 to 34 °C
9,CC(C)(C)c1ccc(-c2cc(-c3ccccc3)c(-c3ccccc3)s2)cc1,108 to 112 °C
10,O=C(O)c1cccc(OC(Cl)=CCl)c1,137 to 141 °C
11,OC(CC(Br)=CBr)(CC(Br)=CBr)Cn1cncn1 (stereo unspecified),100 °C
12,CCOC(=O)c1nc(N)sc1-c1cn2cc(C)ccc2n1,268 to 271 °C
13,CNc1nc(C)c(C(C)=O)s1,164 to 165 °C
14,CCCCCCCCCCCCC(O)CN(CCC#N)CCCCCCCCCCCCN(CCC#N)CC(O)CCCCCCCCCCCC (stereo unspecified),37 to 38 °C
15,COC(=O)C(=C(C)NCC(O)CO)c1ncc([N+](=O)[O-])cc1[N+](=O)[O-] (stereo unspecified),128 to 129 °C
16,CN(O)C(=O)NCCCCCCOc1ccc(-c2ccccc2)cc1,148 to 150 °C
17,CCC1(CCCCN2CCN(c3cccc(Cl)c3)CC2)C(=O)Nc2ccc(C)cc21 (stereo unspecified),142 to 144 °C
18,O=c1[nH]ccn1-c1ccc(OCC(F)(F)C(F)F)cc1,157 to 159 °C
19,O=c1c(C2=CS(=O)(=O)c3cc(NS(=O)(=O)C4CC4)ccc3N2)c(O)c2cc(F)ccc2n1CCC1CC1,145 to 155 °C
20,COC(=O)c1ccc2c(c1)ncn2-c1ccc(OC)c(C2CCCC2)c1,129 to 131 °C
21,CNC(=S)C1=CC(C)(C(F)(F)F)Oc2ccc([N+](=O)[O-])cc21 (stereo unspecified),158 to 160 °C
22,O=C(c1ccncc1)c1cc2c(c(C(=O)O)c1)OC(c1ccccc1)(c1ccccc1)O2,256 to 257 °C
23,O=C(NCCCSc1cccnc1)c1cccs1,66 to 67 °C
24,O=C1C(CCO)Oc2ccccc2N1Cc1cccc2ccccc12 (stereo unspecified),100 to 104 °C

row,Structure (SMILES),melting point
1,O=C(COc1cc(=O)oc2ccccc12)c1ccccc1,183 to 184 °C
2,O=C1COCC2=C1C(c1ccc(F)c(I)c1)C1=C(CCS1(=O)=O)N2 (stereo unspecified),> 260 °C
3,C#Cc1cc(Cl)cc2nc(Cc3cc(C(C)(C)C)c(O)c(C(C)(C)C)c3)oc12,152 to 155 °C
4,Nc1[nH]nc(-c2ccc(Cl)cc2)c1-c1ccncc1,> 300 °C
5,Cc1cc(C)c([Si]2(c3c(C)cc(C)cc3C)C(=O)C(c3ccccc3)=C(c3ccccc3)C(=O)[Si]2(c2c(C)cc(C)cc2C)c2c(C)cc(C)cc2C)c(C)c1,67 to 68 °C
6,Cn1cc(C(=O)NCc2ccc(Cl)cc2)c(=O)c2cc(/C=C/CO)ccc21,103 to 106 °C
7,COc1cc(CC(=O)NCCCc2ccc(C)c(C)c2)ccc1OCCN,125 °C
8,COc1ccc(NC(=O)OCC2(C(C)=O)CC3C=CC2C3)cc1C (stereo unspecified),121 to 122 °C
9,Cn1nc(-c2c(NCc3ccccn3)nc(N)nc2-c2ccccc2)ccc1=O,248 to 250 °C
10,O=C(NCC(=O)N1c2ccccc2N(Cc2ccccc2)C(=O)[C@H]2CCC[C@H]21)c1cccs1 (relative stereo),223 °C
11,Cn1cc(C(=O)O)c(=O)c2cc3cc(F)c(N4CCN(O)CC4)c(F)c3nc21,285 to 288 °C
12,O=C(Nc1cccc(-c2ccnc3c(C(=O)c4cccs4)cnn23)c1)c1ccco1,> 240 °C
13,COc1ccc2c(c1Br)C(=O)C(=O)N2,250 to 251 °C
14,CC(=O)Nc1cc([N+](=O)[O-])ccc1OCCCN,110 to 120 °C
15,Cc1ccc(S(=O)(=O)NC(=O)NC2N=C(c3ccccc3)c3ccccc3N(C)C2=O)cc1 (stereo unspecified),244 to 246 °C
16,CCn1c(C)c(C2(c3ccc(N(C)C)cc3N(C)C)OC(=O)c3ccccc32)c2ccccc21 (stereo unspecified),218 to 222 °C
17,COc1c(Cl)nc(N2CCOCC2)nc1Cl,116 °C
18,COC(=O)C12CCc3ccccc3C1=NN(C(=O)Nc1ccc(C(F)(F)F)cc1)C2 (stereo unspecified),177 to 180 °C
19,COC(=O)c1ccc(C)c(NC(=O)c2cccc([N+](=O)[O-])c2)c1,208 to 209 °C
20,N#CN=C(Cc1ccc2c(c1)Nc1nccnc1S2)NCCCC(=O)O,217 to 218 °C
21,O=C(O)COc1c2ccccc2c(-c2cc(Br)c(OC(Cc3ccccc3)C(=O)O)c(Br)c2)c2c1sc1ccccc12 (stereo unspecified),110 to 120 °C
22,Cc1cc2c(c(C)c1NC=O)C(c1ccc(C(C)C)cc1)CO2 (stereo unspecified),193 to 196 °C
23,Cc1ccc(C(=O)N2CCC3(CC2)OCCO3)cc1,59 to 61 °C
24,CC(C)C[C@H]1[C@@H]2C(=O)N(Cc3ccccc3)C(=O)[C@@H]2[C@H](c2ccc(C#N)cc2)N1C (racemic),173 to 174 °C

row,Structure (SMILES),melting point
1,Cc1cnc2c(NC(=O)c3c(Cl)cccc3Cl)cccc2c1N1CCN(C)C1=O,288 °C
2,CN(C)Cc1nnc2n1-c1ccc(Cl)cc1C(c1ccccc1)=[N+]([O-])C2,217 to 219 °C
3,Cc1cc(C)nc(NC(=O)NS(=O)(=O)c2ccccc2C(F)F)n1,190 to 195 °C
4,CC1(C)C(=O)Nc2ccc(-c3ccc(C#N)o3)cc21,193 to 194 °C
5,O=C(CCc1ccsc1)CC(=O)N1CCOCC1,81 to 84 °C
6,Cc1nc2ccccc2n1Cc1ccc(C(=O)O)c2ccccc12,292 to 293 °C
7,CC1(c2cn(-c3c(Cl)cc(C(F)(F)F)cc3Cl)nc2C#N)CC1(Br)Br (stereo unspecified),133 to 134 °C
8,CCn1c(C)c(C(=O)c2ccccc2)c(N=Cc2ccccc2)c1-c1ccccc1,147 to 148 °C
9,Oc1ccc(-c2cc3c(O)cc(O)cc3o2)cc1,216 to 217 °C
10,CC1N=C(c2ccccn2)c2cc(Br)ccc2NC1=O (stereo unspecified),227 to 229 °C
11,CCOC(CCP(=O)(OCC)OCC)(C(=O)c1ccccc1)c1ccccc1 (stereo unspecified),75 °C
12,CC(C)CCCC(C)C1C=CC2(CC(=O)O)C3=C(CCC12C)C1(C)CCC(O)CC1CC3 (stereo unspecified),221 to 222 °C
13,Cc1ccc(C(=O)Nc2ccc(C=O)c(C(F)(F)F)c2)cc1Br,194 to 195 °C
14,Cn1nc(-c2cc(Cl)c(F)cc2F)c(Cl)c1C(F)(F)F,50 to 51 °C
15,Cc1ccc(C(=S)C=CC(=O)Nc2c(C)cccc2C)cc1,216 to 217 °C
16,CCOc1cc(C(=O)c2ccccn2)ccc1OCCO,140 to 141 °C
17,O=C(O)c1ccc(CSc2nnc(S)s2)cc1,230 to 232 °C
18,COc1cc2c(=O)c(OS(C)(=O)=O)cn(C)c2cc1OC,216 to 217 °C
19,O=C1CC2CCS(=O)c3ccccc3C2=NN1c1ccc(Cl)cc1 (stereo unspecified),190 to 191 °C
20,NC(=O)c1[nH]cnc1OC(=O)C=Cc1ccc(C=O)cc1,233 °C
21,COc1ccc(N2CCOCC2)c2sc(NC(=O)N3CCCOCC3)nc12,171 to 172 °C
22,CCCOC(=O)c1c(C)nc2cc(OC)c(OC)cc2c1-c1ccc(OC)c(OC)c1,153 to 155 °C
23,O=C(NC1CCN(C(=O)NCCC2(C(=O)NCC(F)(F)F)c3ccccc3-c3ccccc32)CC1)c1ccccc1,220 to 222 °C
24,CCOC(=O)COc1ccc(Br)cc1C(C)=O,66 to 68 °C
